Literature values, collected in patent US20160045463A1, “USE OF METALLOPROTEASE INHIBITORS IN THE TREATMENT OF POLYCYSTIC LIVER DISEASES” (UNIVERSIDAD DE SALAMANCA, priority 2012, published 2016).

Tested on: polycystic livers
Settings: ADPKD patients subjected to kidney transplant with polycystic livers; cited from earlier work

In the case of `C=CC[C@@H]1/C=C(\C)C[C@H](C)C[C@H](OC)[C@H]2O[C@@](O)(C(=O)C(=O)N3CCCC[C@H]3C(=O)O[C@H](/C(C)=C/[C@@H]3CC[C@@H](O)[C@H](OC)C3)[C@H](C)[C@@H](O)CC1=O)[C@H](C)C[C@@H]2OC` [tacrolimus], the “volume of the liver” value is listed as “increased the volume of the liver”.
